{"source": "patent US5100663A", "about": "“Tyr-Gly compositions useful in increasing immune response” (priority 1990, dated 1992)", "key": {"[1]": {"tested_on": "cell-mediated immune system response", "assay": "Amplifier (immunological) activity of HPLC fractions and their constituents", "design": "species or system human", "details": "for immunological activity as assayed by DH test: moieties in effluents of Example 5 process; for amplifier / immunological activity: HPLC fractions of human leukocyte dialysate and constituents", "text": "Absorbance was monitored at […], 0.1 Absorbance Units=Full Scale. […] The first peak was lower than the second and third, in terms of absorbance units, and is believed to be an artifact of the system associated with the ethanol solvent or due to elution of salts. The second and third peaks varied in relative height from preparation to preparation.\nOther moieties found present in effluents of this process were Gly-Gly, Ser-Phe, and Ala, along with possibly other amino acid residues as well."}, "[2]": {"tested_on": "IL-2 receptors on T-helper cells", "assay": "T-helper cell IL-2 receptor expression assay", "type": "cell-based, human"}, "[3]": {"tested_on": "gamma-interferon production in normal cells", "assay": "Antigen-induced production of gamma interferon", "type": "cell-based, human", "text": "The LIF assay is described in Gottlieb et al., Modulation of Human T Cell Production, J. Immunology 132: 256-260 (Jan. 1984), at p. 257. Protocols for the other assays are believed to be known to those skilled in this art. A convenient reference for the gamma-interferon assay in Sinha et al., Bio/Technology 6:810 (1988), at pp. 814-15.\nPreparations of 0.1 Lf /ml and 1.0 Lf /ml TT were used to determine the effect of Beta-1.11 (endogenous YG-material) on production of gamma-interferon in normal cells. As before, serial dilutions of Beta-1.11 were prepared from 46.5 pM to 91 fM."}, "[4]": {"tested_on": "DH response to tetanus toxoid (TT)", "design": "species or system human", "details": "in vivo"}, "[5]": {"tested_on": "L1210 leukemia cells in BDF1 strain mice", "assay": "Mouse L1210 leukemia survival test", "type": "in vivo", "details": "2 fg intradermally every third day (about 100 fg/kg); 5 mice per group; present-tense example", "procedure": "Ten BDF1 strain mice are divided into two groups of 5. Each mouse is injected with 100 L1210 leukemia cells from ascitic fluid of DBA/2 host mice.\n(§1) The mice in Group I (control) are thereafter given injections of 0.1 ml sterile saline every third day. The mice in Group II are thereafter given intradermal injections of 2 fg of synthetic YG of Example 20 in 0.1 ml of sterile saline, every third day. The mice weigh approximately 20 g each, so that 2 fg represents approximately 100 fg/kg of bodyweight.\nas §1, with “synthetic Tyr-D-Ala-Gly” for “synthetic YG”, “Example 25” for “Example 20”, “mice were” for “mice weigh”"}}, "note": "Like-named read-outs stand apart in the source and are kept apart here. Non-standard residues stand in square brackets, D forms with d. Residues, ends and D or L forms follow the SMILES beside them.", "data": [{"compound": "C[C@H](N)C(=O)O", "note": "[Ala]", "values": [{"measurement": "immunological activity as assayed by DH test", "setting": "[1]", "result": "None of these other moieties appeared to possess immunological activity"}]}, {"compound": "C[C@@H](NC(=O)[C@@H](N)Cc1ccc(O)cc1)C(=O)NCC(=O)O", "note": "[Tyr-D-Ala-Gly, L-tyrosyl-D-alanyl-L-glycine] (H-Tyr-[dA]-Gly-OH)", "values": [{"measurement": "concentration giving the highest figure for high density of receptors", "setting": "[2]", "result": "approximately 2 fM"}, {"measurement": "effect relative to endogenous material", "setting": "[2]", "result": "approximately an order of magnitude less in effect than endogenous YGG-material"}, {"measurement": "increase of IL-2 receptors (high density maximum), factor", "setting": "[2]", "result": "approximately 1.5"}, {"measurement": "concentration at maximum gamma-interferon production", "setting": "[3]; 1.0 Lf/ml TT", "result": "approximately 20 fM"}, {"measurement": "potency relative to endogenous YG-material", "setting": "[3]; gamma interferon assay, human sources not identical", "result": "an order of magnitude more potent"}, {"measurement": "amplifier effect in DH assay", "setting": "[4]", "result": "slightly better than that observed in Table 1 of Gottlieb U.S. Pat. No. 4,699,898"}, {"measurement": "skin reaction without TT", "setting": "[4]", "result": "No reaction is observed"}, {"measurement": "mean survival longer than control group", "setting": "[5]", "result": "approximately 2.8 days"}]}, {"compound": "N[C@@H](Cc1ccc(O)cc1)C(=O)NCC(=O)NCC(=O)O", "note": "[YGG, L-tyrosylglycylglycine] (H-Tyr-Gly-Gly-OH)", "values": [{"measurement": "potency relative to corresponding endogenous amplifier materials Beta-1.11 and Beta-1.12", "setting": "[4]", "result": "an order of magnitude less potent"}]}, {"compound": "N[C@@H](Cc1ccccc1)C(=O)O", "note": "[phenylalanine]", "values": [{"measurement": "amplifier / immunological activity", "setting": "[1]", "result": "found to lack intrinsic amplifier activity"}]}, {"compound": "N[C@@H](Cc1ccc(O)cc1)C(=O)NCC(=O)O", "note": "[synthetic YG, L-tyrosylglycine]", "values": [{"measurement": "increase of IL-2 receptors (high density maximum), factor", "setting": "[2]", "result": "approximately 1.6"}, {"measurement": "concentration giving the highest figure for high density of receptors", "setting": "[2]; TT + serial dilutions", "result": "approximately 22 fM"}, {"measurement": "potency relative to corresponding endogenous amplifier materials Beta-1.11 and Beta-1.12", "setting": "[4]", "result": "an order of magnitude less potent"}, {"measurement": "mean survival longer than control group", "setting": "[5]", "result": "approximately 2.4 days"}]}, {"compound": "Gly-Gly", "values": [{"measurement": "amplifier / immunological activity", "setting": "[1]", "result": "found to lack intrinsic amplifier activity"}, {"measurement": "immunological activity as assayed by DH test", "setting": "[1]", "result": "None of these other moieties appeared to possess immunological activity"}]}, {"compound": "Tyr-Gly-Gly-Phe-Ile (YGGFI; printed: Tyr-Gly-Gly-Phe-Ile)", "values": [{"measurement": "immunological activity in DH assay", "setting": "[4]", "result": "Significant immunological activity is not observed"}, {"measurement": "molar concentration giving activity comparable to YG, relative to YG in Example 21", "setting": "[4]", "result": "8-10 orders of magnitude"}]}]}
